Data as given in the CheMixHub viscosity set.
± gives the uncertainty stated by the source.

Test: xn = mol fraction of the nth substance listed

CCCCCO + CCCO
101.33 kPa
Settings | viscosity [mPa·s]
293.15 K, x2 = 0.1659 | 3.671 ± 0.11
293.15 K, x2 = 0.3648 | 3.292 ± 0.095
293.15 K, x2 = 0.5097 | 3.015 ± 0.088
293.15 K, x2 = 0.6041 | 2.854 ± 0.083
293.15 K, x2 = 0.7449 | 2.617 ± 0.077
298.15 K, x2 = 0.2007 | 3.137 ± 0.091
298.15 K, x2 = 0.381 | 2.856 ± 0.083
298.15 K, x2 = 0.4603 | 2.722 ± 0.08
298.15 K, x2 = 0.6314 | 2.464 ± 0.073
298.15 K, x2 = 0.7745 | 2.261 ± 0.067
298.15 K, x2 = 0.8626 | 2.141 ± 0.064

CC(C)CCl + CC(C)CO
viscosity [mPa·s], 101.33 kPa
Settings | x1 = 0.1154 | x1 = 0.2046 | x1 = 0.3086 | x1 = 0.4017 | x1 = 0.4943 | x1 = 0.6102 | x1 = 0.7057 | x1 = 0.8002 | x1 = 0.8978
298.15 K | 2.364 ± 0.019 | 1.728 ± 0.015 | 1.287 ± 0.012 | 1.019 ± 0.01 | 0.8243 ± 0.0086 | 0.6718 ± 0.0075 | 0.5775 ± 0.0068 | 0.5104 ± 0.0064 | 0.4593 ± 0.0061
313.15 K | 1.56 ± 0.013 | 1.191 ± 0.01 | 0.9221 ± 0.0087 | 0.7582 ± 0.0076 | 0.6325 ± 0.0068 | 0.5324 ± 0.0061 | 0.4679 ± 0.0057 | 0.4215 ± 0.0054 | 0.3866 ± 0.0052

ClC(Cl)=C(Cl)Cl + CCCCO
Settings | viscosity [mPa·s]
298.15 K, 101.3 kPa, x1 = 0.6759 | 1.045 ± 0.01

CCCCCO + O
viscosity [mPa·s], 101 kPa
Settings | 298.15 K | 308.15 K | 318.15 K
x2 = 0.0288 | 3.509 ± 0.031 | 2.654 ± 0.023 | –
x2 = 0.029 | – | – | 2.055 ± 0.018
x2 = 0.0453 | 3.487 ± 0.03 | 2.638 ± 0.023 | –
x2 = 0.066 | 3.468 ± 0.03 | 2.62 ± 0.023 | –
x2 = 0.0685 | – | – | 2.026 ± 0.018
x2 = 0.0859 | 3.451 ± 0.03 | 2.606 ± 0.023 | –
x2 = 0.0914 | – | – | 2.016 ± 0.018
x2 = 0.1012 | – | – | 2.006 ± 0.018
x2 = 0.113 | 3.437 ± 0.029 | 2.591 ± 0.022 | –
x2 = 0.1301 | 3.431 ± 0.029 | 2.585 ± 0.022 | 1.997 ± 0.017
x2 = 0.1472 | 3.429 ± 0.029 | 2.579 ± 0.022 | –
x2 = 0.149 | – | – | 1.991 ± 0.017
x2 = 0.1655 | – | 2.577 ± 0.022 | –
x2 = 0.1689 | 3.424 ± 0.029 | – | 1.985 ± 0.017
x2 = 0.1776 | 3.426 ± 0.029 | 2.576 ± 0.022 | –
x2 = 0.2023 | – | – | 1.98 ± 0.017
x2 = 0.216 | 3.428 ± 0.028 | 2.572 ± 0.022 | –
x2 = 0.2419 | 3.438 ± 0.028 | 2.575 ± 0.022 | 1.979 ± 0.017

O=[N+]([O-])c1ccccc1 + CO
viscosity [mPa·s]
Settings | 298.15 K | 303.15 K
101 kPa, x1 = 0.0148 | 0.5642 ± 0.0056 | –
101 kPa, x2 = 0.0719 | 1.698 ± 0.017 | –
101 kPa, x2 = 0.2616 | 1.416 ± 0.014 | –
101 kPa, x2 = 0.4788 | 1.161 ± 0.012 | –
101 kPa, x2 = 0.5889 | 1.036 ± 0.01 | –
101 kPa, x2 = 0.7539 | 0.8366 ± 0.0084 | –
101 kPa, x2 = 0.8593 | 0.7113 ± 0.0071 | –
101 kPa, x2 = 0.9296 | 0.6279 ± 0.0063 | –
101.33 kPa, x1 = 0.0281 | 0.5789 ± 0.031 | 0.541 ± 0.03
101.33 kPa, x1 = 0.0612 | 0.611 ± 0.033 | 0.5673 ± 0.031
101.33 kPa, x1 = 0.1003 | 0.6507 ± 0.034 | 0.607 ± 0.032
101.33 kPa, x1 = 0.1478 | 0.7156 ± 0.037 | 0.6653 ± 0.035
101.33 kPa, x1 = 0.2806 | 0.8769 ± 0.044 | 0.81 ± 0.041
101.33 kPa, x1 = 0.3909 | 1.006 ± 0.05 | 0.9279 ± 0.046
101.33 kPa, x1 = 0.5102 | 1.156 ± 0.056 | 1.093 ± 0.053
101.33 kPa, x1 = 0.5937 | – | 1.298 ± 0.062
101.33 kPa, x1 = 0.8005 | 1.559 ± 0.073 | 1.485 ± 0.07
101.33 kPa, x1 = 0.8978 | 1.693 ± 0.079 | 1.534 ± 0.072

CC(C)CCl + CC(C)(C)O
viscosity [mPa·s], 101.33 kPa
Settings | x1 = 0.0982 | x1 = 0.2011 | x1 = 0.3047 | x1 = 0.4029 | x1 = 0.5031 | x1 = 0.6023 | x1 = 0.6979 | x1 = 0.7997 | x1 = 0.8948
298.15 K | 2.345 ± 0.019 | 1.477 ± 0.013 | 1.065 ± 0.0099 | 0.8424 ± 0.0084 | 0.6988 ± 0.0074 | 0.604 ± 0.0068 | 0.5388 ± 0.0064 | 0.4863 ± 0.0061 | 0.3827 ± 0.1
313.15 K | 1.359 ± 0.011 | 0.9661 ± 0.0087 | 0.7571 ± 0.0073 | 0.6303 ± 0.0065 | 0.5423 ± 0.006 | 0.481 ± 0.0056 | 0.437 ± 0.0054 | 0.4053 ± 0.0053 | 0.3751 ± 0.0051

Cc1nc(C)c(C)[nH]1 + O
viscosity [mPa·s], 100 kPa
Settings | x1 = 0.0179 | x1 = 0.0393 | x1 = 0.0655 | x1 = 0.0983 | x1 = 0.141
298.15 K | 1.317 ± 0.054 | 2.01 ± 0.08 | 3.12 ± 0.13 | 5.27 ± 0.21 | 9.35 ± 0.43
303.15 K | 1.157 ± 0.047 | 1.754 ± 0.072 | 2.71 ± 0.11 | 4.41 ± 0.18 | 7.38 ± 0.34
313.15 K | 0.944 ± 0.039 | 1.384 ± 0.056 | 2.08 ± 0.08 | 3.24 ± 0.13 | 4.87 ± 0.22
323.15 K | 0.774 ± 0.032 | 1.1 ± 0.045 | 1.598 ± 0.065 | 2.4 ± 0.1 | 3.44 ± 0.15

CC12CC3CC(C)(C1)CC(C)(C3)C2 + CCCCCCCCO
viscosity [mPa·s], 100 kPa
Settings | x1 = 0.1004 | x1 = 0.2017 | x1 = 0.3008 | x1 = 0.3998 | x1 = 0.5015 | x1 = 0.5993 | x1 = 0.7 | x1 = 0.7997 | x1 = 0.9005
293.15 K | 7.78 ± 0.32 | 6.71 ± 0.27 | 5.79 ± 0.24 | 5 ± 0.2 | 4.3 ± 0.18 | 3.75 ± 0.15 | 3.3 ± 0.13 | 2.98 ± 0.12 | 2.76 ± 0.11
298.15 K | 6.54 ± 0.27 | 5.65 ± 0.23 | 4.9 ± 0.2 | 4.25 ± 0.17 | 3.71 ± 0.15 | 3.28 ± 0.13 | 2.93 ± 0.12 | 2.66 ± 0.11 | 2.47 ± 0.1
303.15 K | 5.53 ± 0.23 | 4.81 ± 0.2 | 4.2 ± 0.17 | 3.68 ± 0.15 | 3.24 ± 0.13 | 2.88 ± 0.12 | 2.59 ± 0.11 | 2.37 ± 0.1 | 2.21 ± 0.09
308.15 K | 4.72 ± 0.19 | 4.14 ± 0.17 | 3.64 ± 0.15 | 3.22 ± 0.13 | 2.85 ± 0.12 | 2.55 ± 0.1 | 2.31 ± 0.09 | 2.13 ± 0.09 | 2 ± 0.08
313.15 K | 4.03 ± 0.16 | 3.57 ± 0.15 | 3.18 ± 0.13 | 2.83 ± 0.12 | 2.53 ± 0.1 | 2.28 ± 0.09 | 2.08 ± 0.08 | 1.93 ± 0.08 | 1.82 ± 0.07
318.15 K | 3.49 ± 0.14 | 3.12 ± 0.13 | 2.79 ± 0.11 | 2.5 ± 0.1 | 2.24 ± 0.09 | 2.03 ± 0.08 | 1.86 ± 0.08 | 1.73 ± 0.07 | 1.65 ± 0.07
323.15 K | 3.03 ± 0.12 | 2.72 ± 0.11 | 2.45 ± 0.1 | 2.22 ± 0.09 | 2 ± 0.08 | 1.83 ± 0.07 | 1.69 ± 0.07 | 1.58 ± 0.06 | 1.51 ± 0.06

ClC(Cl)=C(Cl)Cl + CCCCCC
303.15 K, 101 kPa
Settings | viscosity [mPa·s]
x1 = 0.1642 | 0.358 ± 0.008
x1 = 0.2468 | 0.388 ± 0.008
x1 = 0.3358 | 0.432 ± 0.009
x1 = 0.4336 | 0.471 ± 0.009
x1 = 0.4782 | 0.494 ± 0.009
x1 = 0.514 | 0.515 ± 0.009
x1 = 0.6464 | 0.591 ± 0.009
x1 = 0.7236 | 0.643 ± 0.008
x1 = 0.8072 | 0.697 ± 0.008
x1 = 0.9346 | 0.776 ± 0.008

O=[N+]([O-])c1ccccc1 + CC(=O)O
viscosity [mPa·s], 101 kPa
Settings | x2 = 0.165 | x2 = 0.3078 | x2 = 0.4326 | x2 = 0.5425 | x2 = 0.6402 | x2 = 0.7274 | x2 = 0.8059 | x2 = 0.8768 | x2 = 0.9412
298.15 K | 1.731 ± 0.013 | 1.662 ± 0.013 | 1.602 ± 0.012 | 1.546 ± 0.012 | 1.488 ± 0.011 | 1.428 ± 0.011 | 1.365 ± 0.011 | 1.3 ± 0.01 | 1.232 ± 0.0096
308.15 K | 1.48 ± 0.011 | 1.453 ± 0.011 | 1.407 ± 0.011 | 1.35 ± 0.01 | 1.288 ± 0.01 | 1.224 ± 0.0096 | 1.159 ± 0.0091 | 1.095 ± 0.0086 | 1.033 ± 0.0082
318.15 K | 1.314 ± 0.01 | 1.365 ± 0.011 | 1.353 ± 0.01 | 1.306 ± 0.01 | 1.24 ± 0.0097 | 1.164 ± 0.0091 | 1.085 ± 0.0086 | 1.006 ± 0.008 | 0.9289 ± 0.0074
